Experimental data: ChEMBL document CHEMBL4507268 (2021)

Legend:
Details in all cases: Compound concentration 1.0 uM
[1] = molecular target: T1, Tyrosine-protein kinase TXK (Homo sapiens) (UniProt P42681)
T1 sequence (whole entry): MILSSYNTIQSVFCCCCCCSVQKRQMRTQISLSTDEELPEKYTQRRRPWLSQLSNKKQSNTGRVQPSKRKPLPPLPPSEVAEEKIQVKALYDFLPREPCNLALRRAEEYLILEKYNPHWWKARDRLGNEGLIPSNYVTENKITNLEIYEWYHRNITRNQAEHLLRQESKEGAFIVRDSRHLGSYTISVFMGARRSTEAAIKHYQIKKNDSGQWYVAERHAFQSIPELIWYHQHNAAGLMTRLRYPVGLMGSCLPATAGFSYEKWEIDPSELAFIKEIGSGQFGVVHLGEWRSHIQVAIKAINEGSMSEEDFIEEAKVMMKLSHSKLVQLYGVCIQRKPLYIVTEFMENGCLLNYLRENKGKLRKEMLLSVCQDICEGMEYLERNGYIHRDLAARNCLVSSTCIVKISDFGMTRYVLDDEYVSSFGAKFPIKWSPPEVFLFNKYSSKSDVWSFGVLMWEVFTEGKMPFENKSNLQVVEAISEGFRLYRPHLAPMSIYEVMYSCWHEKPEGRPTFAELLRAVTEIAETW

[2] = molecular target: Cyclin-dependent kinase 13/Cyclin-K (Homo sapiens) (UniProt Q14004+O75909)
[3] = molecular target: T2, Interleukin-1 receptor-associated kinase 4 (Homo sapiens) (UniProt Q9NWZ3)
T2 sequence (whole entry): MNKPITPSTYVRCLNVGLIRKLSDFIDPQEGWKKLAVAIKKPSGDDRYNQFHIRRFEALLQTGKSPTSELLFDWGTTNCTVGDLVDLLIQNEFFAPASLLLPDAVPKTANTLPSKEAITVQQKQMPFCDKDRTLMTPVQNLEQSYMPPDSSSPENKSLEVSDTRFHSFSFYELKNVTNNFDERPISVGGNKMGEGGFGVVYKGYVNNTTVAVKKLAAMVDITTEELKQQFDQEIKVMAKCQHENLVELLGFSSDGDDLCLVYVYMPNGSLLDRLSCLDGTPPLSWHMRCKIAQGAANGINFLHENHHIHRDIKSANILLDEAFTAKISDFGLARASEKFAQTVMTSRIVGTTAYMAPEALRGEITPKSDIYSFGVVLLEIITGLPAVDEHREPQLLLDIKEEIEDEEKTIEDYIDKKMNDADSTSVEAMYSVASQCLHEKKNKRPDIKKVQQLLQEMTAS

[4] = molecular target: Death-associated protein kinase 1 (Homo sapiens) (UniProt P53355)
Sequence of Death-associated protein kinase 1 (Homo sapiens) (P53355 whole entry, looked up): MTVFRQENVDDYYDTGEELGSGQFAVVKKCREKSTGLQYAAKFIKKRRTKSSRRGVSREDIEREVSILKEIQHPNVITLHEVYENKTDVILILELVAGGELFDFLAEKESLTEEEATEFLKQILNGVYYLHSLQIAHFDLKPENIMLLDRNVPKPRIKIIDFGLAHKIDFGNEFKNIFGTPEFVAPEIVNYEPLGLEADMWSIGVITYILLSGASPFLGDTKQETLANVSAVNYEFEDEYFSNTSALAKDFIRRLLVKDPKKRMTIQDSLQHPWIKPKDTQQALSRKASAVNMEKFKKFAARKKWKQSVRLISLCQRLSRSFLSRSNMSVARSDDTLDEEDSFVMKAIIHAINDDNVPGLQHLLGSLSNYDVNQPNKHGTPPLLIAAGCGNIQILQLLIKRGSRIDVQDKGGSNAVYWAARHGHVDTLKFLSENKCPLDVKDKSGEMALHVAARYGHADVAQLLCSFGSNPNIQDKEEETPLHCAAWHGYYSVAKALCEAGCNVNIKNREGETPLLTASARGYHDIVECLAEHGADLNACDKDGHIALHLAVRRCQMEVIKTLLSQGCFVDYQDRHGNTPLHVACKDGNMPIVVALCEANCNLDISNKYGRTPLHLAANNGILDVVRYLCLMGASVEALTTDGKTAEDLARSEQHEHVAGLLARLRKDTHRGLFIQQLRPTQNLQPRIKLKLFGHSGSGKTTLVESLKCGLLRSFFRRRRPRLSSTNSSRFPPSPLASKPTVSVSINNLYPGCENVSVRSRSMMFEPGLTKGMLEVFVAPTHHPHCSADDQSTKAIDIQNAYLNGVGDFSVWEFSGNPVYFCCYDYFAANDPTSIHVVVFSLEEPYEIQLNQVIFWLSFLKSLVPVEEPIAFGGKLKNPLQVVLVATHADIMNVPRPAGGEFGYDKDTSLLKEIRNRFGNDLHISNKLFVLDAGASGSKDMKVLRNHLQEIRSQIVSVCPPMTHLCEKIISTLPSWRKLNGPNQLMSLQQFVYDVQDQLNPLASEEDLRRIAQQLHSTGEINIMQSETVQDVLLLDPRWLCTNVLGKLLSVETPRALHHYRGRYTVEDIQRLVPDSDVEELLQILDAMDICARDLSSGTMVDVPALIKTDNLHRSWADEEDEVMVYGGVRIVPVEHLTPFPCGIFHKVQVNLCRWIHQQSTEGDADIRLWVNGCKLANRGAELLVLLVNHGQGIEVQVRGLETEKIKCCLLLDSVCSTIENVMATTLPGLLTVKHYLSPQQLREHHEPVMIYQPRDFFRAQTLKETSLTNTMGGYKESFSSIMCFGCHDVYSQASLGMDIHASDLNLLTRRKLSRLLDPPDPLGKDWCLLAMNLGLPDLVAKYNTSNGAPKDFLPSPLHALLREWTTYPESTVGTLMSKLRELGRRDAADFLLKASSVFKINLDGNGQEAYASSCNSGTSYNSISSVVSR

[5] = molecular target: DNA-dependent protein kinase catalytic subunit (Homo sapiens) (UniProt P78527)
[6] = molecular target: TGF-beta receptor type-2 (Homo sapiens) (UniProt P37173)
Sequence of TGF-beta receptor type-2 (Homo sapiens) (P37173 whole entry): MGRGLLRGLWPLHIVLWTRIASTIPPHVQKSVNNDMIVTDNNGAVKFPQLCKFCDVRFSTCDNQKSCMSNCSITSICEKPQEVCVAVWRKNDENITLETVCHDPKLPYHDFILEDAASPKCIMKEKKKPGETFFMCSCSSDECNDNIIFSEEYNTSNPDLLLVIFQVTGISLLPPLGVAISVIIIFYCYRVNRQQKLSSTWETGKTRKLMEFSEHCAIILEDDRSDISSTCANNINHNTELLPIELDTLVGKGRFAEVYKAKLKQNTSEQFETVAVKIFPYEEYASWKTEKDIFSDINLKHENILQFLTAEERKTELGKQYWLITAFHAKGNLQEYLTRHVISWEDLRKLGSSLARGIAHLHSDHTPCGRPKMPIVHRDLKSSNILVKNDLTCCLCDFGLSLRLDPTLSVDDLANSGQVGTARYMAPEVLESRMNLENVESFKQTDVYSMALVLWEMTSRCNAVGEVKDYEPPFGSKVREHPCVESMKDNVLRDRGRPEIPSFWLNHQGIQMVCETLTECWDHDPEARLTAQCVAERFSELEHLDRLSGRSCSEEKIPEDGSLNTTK

[7] = molecular target: PI3-kinase p110-alpha/p85-alpha (Homo sapiens) (UniProt P27986+P42336)
[8] = molecular target: T3, Inhibitor of nuclear factor kappa-B kinase subunit epsilon (Homo sapiens) (UniProt Q14164)
T3 sequence (whole entry): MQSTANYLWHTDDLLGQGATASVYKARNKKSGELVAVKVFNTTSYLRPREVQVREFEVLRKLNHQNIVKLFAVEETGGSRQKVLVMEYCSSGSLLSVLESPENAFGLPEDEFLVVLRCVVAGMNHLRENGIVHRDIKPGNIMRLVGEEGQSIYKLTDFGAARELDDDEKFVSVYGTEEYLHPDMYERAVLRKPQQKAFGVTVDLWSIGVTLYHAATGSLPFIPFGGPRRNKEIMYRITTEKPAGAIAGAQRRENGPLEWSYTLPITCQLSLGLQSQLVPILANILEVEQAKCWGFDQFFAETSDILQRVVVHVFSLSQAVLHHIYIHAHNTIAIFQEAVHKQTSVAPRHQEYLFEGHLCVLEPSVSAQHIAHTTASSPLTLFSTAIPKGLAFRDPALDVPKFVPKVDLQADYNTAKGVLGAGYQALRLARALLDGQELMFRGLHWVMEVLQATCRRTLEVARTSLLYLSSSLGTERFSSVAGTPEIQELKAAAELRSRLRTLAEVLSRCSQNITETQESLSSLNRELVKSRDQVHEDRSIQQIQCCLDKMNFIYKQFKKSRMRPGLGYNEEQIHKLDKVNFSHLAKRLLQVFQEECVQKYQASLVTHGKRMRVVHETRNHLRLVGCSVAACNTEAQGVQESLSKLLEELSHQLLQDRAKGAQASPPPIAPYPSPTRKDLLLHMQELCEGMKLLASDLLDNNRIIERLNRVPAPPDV

[9] = molecular target: Receptor tyrosine-protein kinase erbB-2 (Homo sapiens) (UniProt P04626)
[10] = molecular target: Ephrin type-A receptor 5 (Homo sapiens) (UniProt P54756)
Sequence of Ephrin type-A receptor 5 (Homo sapiens) (P54756 whole entry): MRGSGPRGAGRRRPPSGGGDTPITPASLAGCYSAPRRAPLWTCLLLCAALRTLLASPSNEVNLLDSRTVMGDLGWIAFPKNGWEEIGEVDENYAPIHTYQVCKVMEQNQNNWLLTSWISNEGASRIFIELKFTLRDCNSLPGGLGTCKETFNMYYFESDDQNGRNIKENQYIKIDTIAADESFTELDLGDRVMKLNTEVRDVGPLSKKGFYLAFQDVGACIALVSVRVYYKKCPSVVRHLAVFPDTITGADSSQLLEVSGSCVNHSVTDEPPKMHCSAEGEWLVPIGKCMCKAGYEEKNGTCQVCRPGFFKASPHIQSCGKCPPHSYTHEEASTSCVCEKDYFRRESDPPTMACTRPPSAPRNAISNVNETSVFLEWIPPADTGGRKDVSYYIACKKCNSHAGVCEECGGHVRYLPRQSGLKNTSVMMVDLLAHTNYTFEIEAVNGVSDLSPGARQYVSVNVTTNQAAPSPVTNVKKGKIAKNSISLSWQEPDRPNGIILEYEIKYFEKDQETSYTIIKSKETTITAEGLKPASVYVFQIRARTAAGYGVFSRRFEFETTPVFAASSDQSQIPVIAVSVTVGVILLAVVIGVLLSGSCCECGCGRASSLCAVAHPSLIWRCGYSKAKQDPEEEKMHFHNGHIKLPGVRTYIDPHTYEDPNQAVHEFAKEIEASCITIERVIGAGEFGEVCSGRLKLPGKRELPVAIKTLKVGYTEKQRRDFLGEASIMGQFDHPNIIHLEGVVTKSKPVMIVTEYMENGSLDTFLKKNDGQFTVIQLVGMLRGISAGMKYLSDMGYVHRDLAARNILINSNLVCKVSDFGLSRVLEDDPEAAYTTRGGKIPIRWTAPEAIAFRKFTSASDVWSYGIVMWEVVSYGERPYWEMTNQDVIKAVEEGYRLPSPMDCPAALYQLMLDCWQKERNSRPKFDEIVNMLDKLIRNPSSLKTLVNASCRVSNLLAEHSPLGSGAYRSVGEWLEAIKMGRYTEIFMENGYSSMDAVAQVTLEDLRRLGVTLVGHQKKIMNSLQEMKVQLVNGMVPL

[11] = molecular target: Platelet-derived growth factor receptor alpha (Homo sapiens) (UniProt P16234)
Sequence of Platelet-derived growth factor receptor alpha (Homo sapiens) (P16234 whole entry): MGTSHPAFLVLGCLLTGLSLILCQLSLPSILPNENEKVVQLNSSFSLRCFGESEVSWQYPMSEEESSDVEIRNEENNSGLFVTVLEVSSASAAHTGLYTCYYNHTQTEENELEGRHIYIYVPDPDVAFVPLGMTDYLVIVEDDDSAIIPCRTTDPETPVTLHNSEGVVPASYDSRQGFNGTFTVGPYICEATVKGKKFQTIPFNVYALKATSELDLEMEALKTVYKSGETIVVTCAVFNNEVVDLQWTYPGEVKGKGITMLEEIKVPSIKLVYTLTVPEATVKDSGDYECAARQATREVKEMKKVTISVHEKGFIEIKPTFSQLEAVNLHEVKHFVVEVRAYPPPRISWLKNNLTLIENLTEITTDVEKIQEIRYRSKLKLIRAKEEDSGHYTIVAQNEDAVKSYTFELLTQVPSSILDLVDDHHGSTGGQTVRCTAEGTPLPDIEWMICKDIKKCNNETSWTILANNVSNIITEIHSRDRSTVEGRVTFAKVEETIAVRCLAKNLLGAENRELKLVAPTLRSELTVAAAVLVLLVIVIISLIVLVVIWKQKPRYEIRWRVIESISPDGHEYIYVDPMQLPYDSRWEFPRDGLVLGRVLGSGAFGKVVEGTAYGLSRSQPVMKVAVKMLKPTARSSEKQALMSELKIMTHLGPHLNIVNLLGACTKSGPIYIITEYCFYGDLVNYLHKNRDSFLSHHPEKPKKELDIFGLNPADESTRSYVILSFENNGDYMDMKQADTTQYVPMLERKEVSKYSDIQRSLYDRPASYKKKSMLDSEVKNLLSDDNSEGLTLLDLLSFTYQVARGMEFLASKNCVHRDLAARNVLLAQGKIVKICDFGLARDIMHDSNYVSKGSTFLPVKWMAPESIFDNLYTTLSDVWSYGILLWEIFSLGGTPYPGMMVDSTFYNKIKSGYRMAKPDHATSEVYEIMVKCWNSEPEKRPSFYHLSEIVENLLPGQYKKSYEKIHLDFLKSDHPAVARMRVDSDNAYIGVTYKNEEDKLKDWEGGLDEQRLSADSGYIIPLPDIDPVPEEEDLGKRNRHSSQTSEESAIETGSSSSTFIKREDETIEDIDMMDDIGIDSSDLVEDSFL

[12] = molecular target: Dual specificity protein kinase CLK3 (Homo sapiens) (UniProt P49761)
Sequence of Dual specificity protein kinase CLK3 (Homo sapiens) (P49761 whole entry, looked up): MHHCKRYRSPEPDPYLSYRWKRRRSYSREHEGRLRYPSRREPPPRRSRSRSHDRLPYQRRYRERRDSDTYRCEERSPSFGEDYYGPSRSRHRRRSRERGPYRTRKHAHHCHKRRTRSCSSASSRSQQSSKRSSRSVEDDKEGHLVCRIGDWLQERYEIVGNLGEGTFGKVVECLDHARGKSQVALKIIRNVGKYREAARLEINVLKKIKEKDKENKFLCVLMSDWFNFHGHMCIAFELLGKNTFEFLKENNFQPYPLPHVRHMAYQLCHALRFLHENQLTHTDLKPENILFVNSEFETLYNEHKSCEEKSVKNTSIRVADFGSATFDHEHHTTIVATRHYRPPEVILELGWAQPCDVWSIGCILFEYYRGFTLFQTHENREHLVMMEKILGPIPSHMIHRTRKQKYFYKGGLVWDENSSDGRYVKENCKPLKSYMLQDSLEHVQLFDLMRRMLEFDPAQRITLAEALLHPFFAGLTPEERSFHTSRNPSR

[13] = molecular target: Protein kinase C theta type (Homo sapiens) (UniProt Q04759)
[14] = molecular target: CDK3/cyclin E (Homo sapiens) (UniProt P24864+O96020+Q00526)

Measured: % residual kinase activity

CN1CCN(c2cnc3c(C4CCN(C(=O)c5ccc(OC(F)(F)F)cc5N)CC4)ncnc3c2)CC1 [BAY-885]
inactive: [1] 99% | [2] 109% | [3] 106% | [4] 109% | [5] 102% | [6] 108% | [7] 98% | [8] 107% | [9] 96% | [10] 57% | [11] 105% | [12] 111% | [13] 115% | [14] 106%
